The source of these data is ChEMBL document CHEMBL4270602, “Design, synthesis, docking studies and biological screening of 2-thiazolyl substituted -2,3-dihydro-1H-naphtho[1,2-e][1,3]oxazines as potent HIV-1 reverse transcriptase inhibitors” (Eur J Med Chem, 2018).

For data set [1], the system named is Human immunodeficiency virus 1. In words: Antiviral activity against Human immunodeficiency virus 1 NL4-3 infected in human CEM-GFP cells after 7 days by p24 ELISA. It counts as functional, organism-based. The note with it: Human immunodeficiency virus 1, NL4-3, CEM-GFP, 168 h. (ELISA stands for enzyme-linked immunosorbent assay.)
Data set [2] deals with Human immunodeficiency virus type 1 reverse transcriptase (Human immunodeficiency virus 1, UniProt Q72547). The experiment in a line: Inhibition of recombinant HIV-1 reverse transcriptase RNA-dependent DNA polymerase activity using poly(rA)/oligo(dT)16 as template/primer preincubated for 5 to 10 mins followed by template/primer addition and measured after 16 hrs by colorimetric assay.

The nature of data set [3]: Cytotoxicity against human CEM-GFP cells after 48 hrs by MTT assay. It counts as cell-based. On the technique in general: Tetrazolium dyes change colour on reduction, which living cells bring about.
Data set [4] has as its target Human immunodeficiency virus type 1 reverse transcriptase (Human immunodeficiency virus 1) (UniProt Q72547). In words: Potency index, ratio of inophyllym B EC50 to compound EC50 for inhibition of recombinant HIV-1 reverse transcriptase RNA-dependent DNA polymerase activity.
Data set [5] in a line: Therapeutic index, ratio of CC50 for human CEM-GFP cells to IC50 for HIV-1 NL4-3 infected in human CEM-GFP cells. It counts as toxicity, cell-based. The note with it: read-out: Ratio CC50/IC50.
For data set [6], the target named is Human immunodeficiency virus type 1 reverse transcriptase (Human immunodeficiency virus 1) (UniProt Q72547). The experiment in a line: Potency index, ratio of efavirenz EC50 to compound EC50 for inhibition of recombinant HIV-1 reverse transcriptase RNA-dependent DNA polymerase activity.

As for `FC(F)(F)c1ccc(-c2csc(N3COc4ccc5ccccc5c4C3)n2)cc1`, in data set [1], the IC50 amounted to 95.5 nM. Moreover, in data set [2], the EC50 was 79 nM. Besides, the midpoint of cytotoxicity in data set [3], the CC50 at 48 h, lay at 24.7 µM. In addition, the Ratio EC50 in data set [4] turned out to be 3. Moreover, the selectivity ratio in data set [5] is 258.
`COc1ccc2c3c(ccc2c1)OCN(c1nc(-c2ccc(F)cc2)cs1)C3`: in data set [1], the half-maximal inhibitory concentration (IC50) is 253 nM. In addition, the EC50 in data set [2] was found to be 192 nM. In data set [3], it took 24.3 µM to reach half-maximal cytotoxicity (CC50 at 48 h). Besides, the selectivity ratio in data set [5] amounted to 96.2.
Turning to `COc1ccc2c3c(ccc2c1)OCN(c1nc(-c2ccc(C(F)(F)F)cc2)cs1)C3`, the IC50 in data set [1] is 82.7 nM. The EC50 in data set [2] was 66 nM. This compound displayed a CC50 at 48 h in data set [3] of 26.3 µM. The Ratio EC50 in data set [6] was found to be 2.5. The selectivity ratio in data set [5] was 318.
Consider `C[C@H]1[C@H](O)c2c(c3c(c4c(-c5ccccc5)cc(=O)oc24)OC(C)(C)C=C3)O[C@@H]1C`, for which the EC50 in data set [2] is 225 nM.
With `O=C1Nc2ccc(Cl)cc2[C@@](C#CC2CC2)(C(F)(F)F)O1` [EFAVIRENZ], in data set [1], the midpoint of inhibition, the IC50, lay at 163 nM. Besides, the CC50 at 48 h in data set [3] was found to be 40.5 µM.
In data set [1], `Fc1ccc(-c2csc(N3COc4ccc5ccccc5c4C3)n2)cc1` came in with a 50% inhibitory concentration (IC50) of 239 nM. In addition, the EC50 in data set [2] was determined as 210 nM. For the same compound, in data set [3], the midpoint of cytotoxicity, the CC50 at 48 h, lay at 25.3 µM. The selectivity ratio in data set [5] came out at 106.
For `Cc1cn([C@H]2C[C@H](N=[N+]=[N-])[C@@H](CO)O2)c(=O)[nH]c1=O` [ZIDOVUDINE], half-maximal inhibition in data set [1] (IC50) required 55.7 nM. The same compound came in with a CC50 at 48 h in data set [3] of 13.1 µM. Further, the selectivity ratio in data set [5] is 236.

Broadly, the IC50 is the concentration needed to halve the response being measured. The low end stands for inhibition by little substance, the high end for a need for much substance. What is called EC50 is the concentration that produces a half-maximal response. Usually CC50 stands for the concentration at which the toxic effect on the cells reaches its halfway point. A higher CC50 goes with better tolerance by the cells.
